Assay [1] deals with HEK293. Kind of assay: cells. Particulars: Homo sapiens. In kind it is functional, cell-based.
For assay [2], the system named is HEK293. In words: cells. In kind it is functional, cell-based. Particulars: Homo sapiens. The source holds these as a separate data set.
Assay [3] has as its system HEK293. Kind of assay: inhibition of NOD1-driven NF-kB reporter – cell-based, luminescence, uHTS, primary screen (AID 1578). The assay is classed as functional. Particulars: Homo sapiens.
In assay [4] the target is Nucleotide-binding oligomerization domain-containing protein 2 (Homo sapiens, UniProt Q9HC29). In words: inhibition of NOD2-driven NF-kB reporter – cell-based, luminescence, uHTS, HEK293 (AID 1566). The assay is classed as functional.
Assay [5] deals with Dual specificity tyrosine-phosphorylation-regulated kinase 1A (Rattus norvegicus, UniProt Q63470). The assay is classed as biochemical, Homo sapiens.
In assay [6] the test system is HEK293. In words: cells. Particulars: Homo sapiens. In kind it is functional, cell-based. The source holds these as a separate data set.
In assay [7] the test system is HEK293. Kind of assay: NOD2 signaling inhibitors in MDP-stimulated cells, cell-based, uHTS, luminescence (AID 2001). The assay is classed as functional. Particulars: Homo sapiens.
Assay [8] addresses Beta-2 adrenergic receptor (Homo sapiens, UniProt P07550). Kind of assay: ADRB2 activation measured by internalization – cell-based, FAP fluorogen, flow cytometry, cherry pick 1, dose response (AID 588763). In kind it is functional.
The test system of assay [9] is Vero. Kind of assay: viability of Vero cells under compound – cytotoxicity control for flavivirus capping enzyme inhibitors (AID 588742). In kind it is functional. Particulars: Chlorocebus sabaeus.
In assay [10] the target is T1, High affinity choline transporter 1 (Homo sapiens, UniProt Q9GZV3).
T1 sequence (Q9GZV3 whole entry): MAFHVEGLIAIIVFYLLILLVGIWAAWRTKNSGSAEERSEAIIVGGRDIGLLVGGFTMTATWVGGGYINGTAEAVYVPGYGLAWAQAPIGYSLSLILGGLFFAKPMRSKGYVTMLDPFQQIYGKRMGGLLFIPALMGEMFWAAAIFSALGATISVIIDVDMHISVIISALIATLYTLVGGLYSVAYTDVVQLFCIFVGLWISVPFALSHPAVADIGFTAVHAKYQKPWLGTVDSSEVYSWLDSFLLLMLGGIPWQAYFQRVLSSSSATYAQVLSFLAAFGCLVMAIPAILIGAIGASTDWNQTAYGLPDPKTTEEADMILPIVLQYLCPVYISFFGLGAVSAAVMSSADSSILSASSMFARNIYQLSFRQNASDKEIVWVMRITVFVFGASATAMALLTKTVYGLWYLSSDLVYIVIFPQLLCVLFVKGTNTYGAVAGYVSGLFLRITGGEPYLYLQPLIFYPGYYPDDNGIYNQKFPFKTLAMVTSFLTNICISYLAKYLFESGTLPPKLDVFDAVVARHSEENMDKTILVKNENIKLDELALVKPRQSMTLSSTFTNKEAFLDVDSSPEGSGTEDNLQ
Kind of assay: human choline transporter blockers, potency – cell-based, 5-point CRC, membrane potential dye, dose response (AID 504840). The assay is classed as functional.

Assay [11] concerns HEK293. Kind of assay: cells. Particulars: Homo sapiens.
Assay [12] concerns HEK293. In words: cells. Particulars: Homo sapiens. The source holds these as a separate data set.
Assay [13] can be described thus: HIV-1 AD8 envelope cell-cell fusion blockers – cherry-pick, dose response (AID 652062).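 Also: luciferase signal from cell-cell fusion driven by HIV-1 clade B AD8 Env; potency is for inhibitors of fusion seen as a drop in luminescence.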 In kind it is functional, cell-based.
The nature of assay [14]: blockers of HIV-1 envelope-mediated cell-cell fusion – cherry-pick, dose response (AID 652057). In kind it is functional, cell-based.
The nature of assay [15]: blockers of HIV-1 ZM109 envelope-driven cell-cell fusion – HeLa effector, CEM target cells, luciferase, cherry-pick, dose response (AID 652058).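 Also: luciferase signal from HIV-1 Env mediated cell-cell fusion of effector and target cells.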 In kind it is functional, cell-based.
Assay [16] in a line: off-target signal loss in HeLa-CEM21 co-culture – HeLa F-luc CTL cells, cherry-picked, counter-screen for HIV-1 Env fusion inhibitor project, dose response (AID 652040).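 Also: potency for signal decrease marking cytotoxic or nonspecific inhibition.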 In kind it is functional, cell-based.
Assay [17] addresses T2, Heat shock factor protein 1 (Mus musculus, UniProt P38532).
T2 sequence (P38532 whole entry): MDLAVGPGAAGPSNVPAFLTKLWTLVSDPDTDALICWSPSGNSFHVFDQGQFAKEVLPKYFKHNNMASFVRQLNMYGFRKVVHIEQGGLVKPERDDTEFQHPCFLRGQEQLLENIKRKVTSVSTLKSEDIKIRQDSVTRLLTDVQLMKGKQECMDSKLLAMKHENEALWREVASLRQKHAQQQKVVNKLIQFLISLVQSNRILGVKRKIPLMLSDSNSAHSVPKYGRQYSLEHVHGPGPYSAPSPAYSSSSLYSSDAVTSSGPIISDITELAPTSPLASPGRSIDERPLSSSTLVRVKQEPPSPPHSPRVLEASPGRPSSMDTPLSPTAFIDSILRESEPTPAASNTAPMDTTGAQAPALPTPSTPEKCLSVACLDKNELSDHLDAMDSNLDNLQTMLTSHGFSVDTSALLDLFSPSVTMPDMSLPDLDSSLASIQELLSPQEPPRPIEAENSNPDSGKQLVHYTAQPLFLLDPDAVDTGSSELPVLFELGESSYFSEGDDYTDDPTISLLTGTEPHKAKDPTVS
Kind of assay: enhancement of HSF1-driven luciferase signal – cell-based, NIH3T3, luminescence, dose retest, confirmation (AID 435004).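 Also: stress induced by proteasome inhibitor MG132 added 30 min after compound; luciferase reporter driven by HSF1 response element in NIH3T3 cells; actives raise luminescence as potentiators of the MG132 stress response.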 The assay is classed as functional.

SMILES strings stand for the structures. Activity calls are given as the source filed them.

Sequence of Nucleotide-binding oligomerization domain-containing protein 2 (Q9HC29 whole entry, the tested form may be a part): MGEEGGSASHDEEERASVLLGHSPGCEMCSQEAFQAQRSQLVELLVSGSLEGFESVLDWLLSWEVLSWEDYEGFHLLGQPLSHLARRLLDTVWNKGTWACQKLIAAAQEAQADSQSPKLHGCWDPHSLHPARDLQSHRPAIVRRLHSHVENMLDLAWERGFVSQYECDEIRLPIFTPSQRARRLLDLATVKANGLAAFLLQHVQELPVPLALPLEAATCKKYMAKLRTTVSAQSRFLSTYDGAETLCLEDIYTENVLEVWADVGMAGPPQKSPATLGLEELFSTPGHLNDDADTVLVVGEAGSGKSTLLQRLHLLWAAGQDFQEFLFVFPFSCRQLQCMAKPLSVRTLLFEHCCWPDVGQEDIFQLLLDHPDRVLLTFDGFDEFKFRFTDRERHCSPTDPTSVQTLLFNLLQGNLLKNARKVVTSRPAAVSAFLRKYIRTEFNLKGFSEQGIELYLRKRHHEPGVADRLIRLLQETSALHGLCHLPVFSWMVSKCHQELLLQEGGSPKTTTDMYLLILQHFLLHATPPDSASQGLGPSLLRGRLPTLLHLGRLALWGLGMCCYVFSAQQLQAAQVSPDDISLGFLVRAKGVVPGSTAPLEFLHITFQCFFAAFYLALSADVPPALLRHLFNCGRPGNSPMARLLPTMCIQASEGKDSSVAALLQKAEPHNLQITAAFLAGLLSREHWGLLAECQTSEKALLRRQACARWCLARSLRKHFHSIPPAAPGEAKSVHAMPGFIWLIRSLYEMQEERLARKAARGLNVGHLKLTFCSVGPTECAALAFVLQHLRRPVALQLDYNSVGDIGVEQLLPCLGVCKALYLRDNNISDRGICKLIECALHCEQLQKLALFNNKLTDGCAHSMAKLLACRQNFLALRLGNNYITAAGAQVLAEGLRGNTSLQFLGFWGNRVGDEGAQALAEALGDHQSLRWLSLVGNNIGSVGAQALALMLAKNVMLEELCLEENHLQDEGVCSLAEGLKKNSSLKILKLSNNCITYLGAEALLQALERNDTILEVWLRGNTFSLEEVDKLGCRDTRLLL
Sequence of Beta-2 adrenergic receptor (P07550 whole entry): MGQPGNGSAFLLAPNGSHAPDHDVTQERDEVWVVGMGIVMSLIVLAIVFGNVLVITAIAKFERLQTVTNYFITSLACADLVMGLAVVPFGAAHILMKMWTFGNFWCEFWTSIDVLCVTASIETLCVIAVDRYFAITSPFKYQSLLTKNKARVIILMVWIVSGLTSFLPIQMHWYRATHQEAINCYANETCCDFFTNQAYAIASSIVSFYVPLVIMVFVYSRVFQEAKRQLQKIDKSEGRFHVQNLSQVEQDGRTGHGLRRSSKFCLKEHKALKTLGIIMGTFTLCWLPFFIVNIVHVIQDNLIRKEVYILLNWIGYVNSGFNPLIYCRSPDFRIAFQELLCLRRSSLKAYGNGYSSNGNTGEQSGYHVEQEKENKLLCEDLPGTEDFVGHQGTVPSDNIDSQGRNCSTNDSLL

With `CN(C)S(=O)(=O)c1cccc(NC(S)=Nc2cccc3cnccc23)c1`, the IC50 in [1] was 3.39 µM (active); in [2], > 20 µM (inactive); in [6], 13.4 µM (active); in assay [7] it was 4.64 µM (active). The EC50 in assay [3] was 10.6 µM (active); in [4], 9.33 µM (active). Moreover, the AC50 in assay [5] was 3.86 µM (active).

For the molecule `CCN(CC)S(=O)(=O)c1cc(NC(=O)C2=COCCO2)ccc1Cl`, the half-maximal effective concentration (EC50) in assay [8] was 38 nM (active).

For the molecule `Cc1ccccc1N1C(=O)NC(=O)/C(=C\c2c(-c3ccccc3)[nH]c3ccccc23)C1=O`, the concentration for half-maximal inhibition (IC50) in [1] was 8.69 µM (active); in assay [10], 11 µM (active); in [6], > 20 µM (inactive); in assay [7], 15.4 µM (inactive). Further, the CC50 in assay [9] is 23.2 µM (active). Further, the 50% effective concentration (EC50) in [3] is 6.37 µM (active).

`CCN(C[C@H]1N[C@@](CC)(C(=O)OC)[C@H]2C(=O)N(Cc3ccccc3)C(=O)[C@@H]12)S(=O)(=O)c1ccc(OC)cc1`: the EC50 in [11] and in assay [12] was > 59.6 µM (inactive) in each case. Also, the concentration at half-maximal activity (AC50) in assay [13] is 7.2 µM (active); in assay [14] it was 1.64 µM (active); in assay [15], 3.76 µM (active); in assay [16] it was 1.89 µM (active).

For the molecule `COc1ccc(/C=c2\s/c(=C\C(=O)C(C)(C)C)[nH]c2=O)cc1O`, in assay [17], the EC50 was 41.8 µM (active). In [5], the AC50 is 4.65 µM (active).

Source of the values: ChEMBL document CHEMBL1201862, “PubChem BioAssay data set” (2004).
